According to ChEMBL document CHEMBL4507265 (2021):

Columns and labels:
[1] = target: 5-hydroxytryptamine receptor 5A (Homo sapiens) (UniProt P47898); conditions: Compound concentration 10.0 uM
[2] = target: MAP/microtubule affinity-regulating kinase 4 (Homo sapiens) (UniProt Q96L34); conditions: Compound concentration 1000.0 nM
[3] = target: Dual specificity tyrosine-phosphorylation-regulated kinase 1B (Homo sapiens) (UniProt Q9Y463); conditions: Compound concentration 1000.0 nM
[4] = target: Homeodomain-interacting protein kinase 1 (Homo sapiens) (UniProt Q86Z02); conditions: Compound concentration 1000.0 nM
[5] = target: Rhodopsin kinase GRK7 (Homo sapiens) (UniProt Q8WTQ7); conditions: Compound concentration 1000.0 nM
[6] = target: Dual specificity protein kinase CLK3 (Homo sapiens) (UniProt P49761); conditions: Compound concentration 1000.0 nM
[7] = target: Macrophage colony-stimulating factor 1 receptor (Homo sapiens) (UniProt P07333); conditions: Compound concentration 1000.0 nM
[8] = target: Casein kinase I isoform alpha-like (Homo sapiens) (UniProt Q8N752); conditions: Compound concentration 1000.0 nM
[9] = target: Receptor-type tyrosine-protein kinase FLT3 (Homo sapiens) (UniProt P36888); conditions: Compound concentration 1000.0 nM
[10] = target: Serine/threonine-protein kinase ULK3 (Homo sapiens) (UniProt Q6PHR2); conditions: Compound concentration 1000.0 nM
[11] = target: Serine/threonine-protein kinase RIO1 (Homo sapiens) (UniProt Q9BRS2); conditions: Compound concentration 1000.0 nM
[12] = target: Phosphorylase b kinase gamma catalytic chain, skeletal muscle/heart isoform (Homo sapiens) (UniProt Q16816); conditions: Compound concentration 1000.0 nM
[13] = tested on: ALK tyrosine kinase receptor (Homo sapiens), Q9UM73 [L1196M]; conditions: Compound concentration 1000.0 nM
[14] = target: Uncharacterized serine/threonine-protein kinase SBK3 (Homo sapiens) (UniProt P0C264); conditions: Compound concentration 1000.0 nM
[15] = target: TGF-beta receptor type-1 (Homo sapiens) (UniProt P36897); conditions: Compound concentration 1000.0 nM
[16] = target: Macrophage-stimulating protein receptor (Homo sapiens) (UniProt Q04912); conditions: Compound concentration 1000.0 nM
[17] = target: TRAF2 and NCK-interacting protein kinase (Homo sapiens) (UniProt Q9UKE5); conditions: Compound concentration 1000.0 nM
[18] = target: Tyrosine-protein kinase receptor TYRO3 (Homo sapiens) (UniProt Q06418); conditions: Compound concentration 1000.0 nM
[19] = target: Non-receptor tyrosine-protein kinase TYK2 (Homo sapiens) (UniProt P29597); conditions: Compound concentration 1000.0 nM
Chain of Non-receptor tyrosine-protein kinase TYK2 (Homo sapiens) (P29597 whole entry): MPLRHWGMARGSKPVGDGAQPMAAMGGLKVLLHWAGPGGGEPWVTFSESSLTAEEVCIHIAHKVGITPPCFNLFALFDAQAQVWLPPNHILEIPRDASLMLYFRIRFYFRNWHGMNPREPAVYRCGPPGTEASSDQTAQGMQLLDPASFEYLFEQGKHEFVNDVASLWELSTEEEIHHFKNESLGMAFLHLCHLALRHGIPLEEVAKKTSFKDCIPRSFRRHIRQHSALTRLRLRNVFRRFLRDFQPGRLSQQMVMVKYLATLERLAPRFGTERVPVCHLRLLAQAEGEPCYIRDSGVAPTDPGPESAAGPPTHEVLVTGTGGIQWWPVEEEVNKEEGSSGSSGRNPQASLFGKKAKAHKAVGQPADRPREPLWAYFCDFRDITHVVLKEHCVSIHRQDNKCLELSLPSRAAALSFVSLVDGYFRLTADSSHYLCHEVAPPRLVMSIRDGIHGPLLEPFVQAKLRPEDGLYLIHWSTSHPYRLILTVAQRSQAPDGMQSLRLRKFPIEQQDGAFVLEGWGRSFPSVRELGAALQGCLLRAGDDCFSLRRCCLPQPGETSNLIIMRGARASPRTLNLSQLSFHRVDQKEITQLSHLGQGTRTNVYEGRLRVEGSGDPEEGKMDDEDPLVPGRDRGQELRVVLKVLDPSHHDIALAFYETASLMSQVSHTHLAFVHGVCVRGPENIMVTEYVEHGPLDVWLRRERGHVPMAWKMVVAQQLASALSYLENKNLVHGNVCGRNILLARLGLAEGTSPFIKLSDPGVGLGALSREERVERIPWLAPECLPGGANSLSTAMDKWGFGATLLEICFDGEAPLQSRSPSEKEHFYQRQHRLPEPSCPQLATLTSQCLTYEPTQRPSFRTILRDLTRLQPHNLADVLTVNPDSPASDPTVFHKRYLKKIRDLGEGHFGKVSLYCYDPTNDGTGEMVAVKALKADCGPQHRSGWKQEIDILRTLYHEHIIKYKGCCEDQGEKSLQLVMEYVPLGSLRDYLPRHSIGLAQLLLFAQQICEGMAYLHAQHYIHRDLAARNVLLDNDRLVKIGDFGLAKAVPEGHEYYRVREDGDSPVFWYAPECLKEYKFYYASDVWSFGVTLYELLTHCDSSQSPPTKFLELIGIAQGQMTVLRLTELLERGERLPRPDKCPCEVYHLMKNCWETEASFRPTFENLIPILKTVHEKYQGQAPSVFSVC

[20] = target: Rho-associated protein kinase 1 (Homo sapiens) (UniProt Q13464); conditions: Compound concentration 1000.0 nM
Chain of Rho-associated protein kinase 1 (Homo sapiens) (Q13464 2-1354 limits assumed): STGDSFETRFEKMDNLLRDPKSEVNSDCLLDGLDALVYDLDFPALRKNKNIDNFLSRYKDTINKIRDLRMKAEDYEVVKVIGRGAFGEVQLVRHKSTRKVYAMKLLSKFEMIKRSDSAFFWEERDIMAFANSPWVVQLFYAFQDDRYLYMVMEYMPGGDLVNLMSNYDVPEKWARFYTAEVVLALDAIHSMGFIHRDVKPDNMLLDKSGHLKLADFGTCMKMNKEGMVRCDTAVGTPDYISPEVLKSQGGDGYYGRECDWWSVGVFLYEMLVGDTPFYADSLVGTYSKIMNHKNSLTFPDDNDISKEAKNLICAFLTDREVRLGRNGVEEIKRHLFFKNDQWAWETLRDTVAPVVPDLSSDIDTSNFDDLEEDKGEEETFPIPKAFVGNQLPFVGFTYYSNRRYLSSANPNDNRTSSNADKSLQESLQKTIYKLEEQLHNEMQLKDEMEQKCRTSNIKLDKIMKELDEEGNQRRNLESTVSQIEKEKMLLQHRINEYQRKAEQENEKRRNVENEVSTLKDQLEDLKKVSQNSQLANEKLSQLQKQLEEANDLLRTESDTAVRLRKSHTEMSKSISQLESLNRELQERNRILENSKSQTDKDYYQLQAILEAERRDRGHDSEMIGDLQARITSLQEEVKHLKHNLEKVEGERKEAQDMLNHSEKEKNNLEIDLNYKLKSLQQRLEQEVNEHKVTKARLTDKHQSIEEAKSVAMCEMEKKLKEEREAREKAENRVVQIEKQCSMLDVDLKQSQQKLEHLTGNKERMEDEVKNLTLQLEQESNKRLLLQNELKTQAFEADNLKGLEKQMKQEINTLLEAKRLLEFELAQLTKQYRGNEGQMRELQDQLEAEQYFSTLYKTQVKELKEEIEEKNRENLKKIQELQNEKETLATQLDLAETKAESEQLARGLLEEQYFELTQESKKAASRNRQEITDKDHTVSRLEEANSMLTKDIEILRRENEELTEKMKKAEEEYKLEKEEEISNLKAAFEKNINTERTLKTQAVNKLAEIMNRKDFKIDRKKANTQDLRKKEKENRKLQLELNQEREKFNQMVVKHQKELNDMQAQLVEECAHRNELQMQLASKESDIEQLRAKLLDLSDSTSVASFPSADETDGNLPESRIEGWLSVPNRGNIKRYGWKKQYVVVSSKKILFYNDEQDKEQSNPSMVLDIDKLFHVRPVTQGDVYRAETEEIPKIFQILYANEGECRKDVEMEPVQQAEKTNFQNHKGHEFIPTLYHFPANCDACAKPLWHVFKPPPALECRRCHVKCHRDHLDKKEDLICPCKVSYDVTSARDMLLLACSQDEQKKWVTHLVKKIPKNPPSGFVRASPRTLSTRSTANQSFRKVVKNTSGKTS

[21] = target: Serine/threonine-protein kinase 38-like (Homo sapiens) (UniProt Q9Y2H1); conditions: Compound concentration 1000.0 nM
[22] = target: Ribosomal protein S6 kinase alpha-1 (Homo sapiens) (UniProt Q15418); conditions: Compound concentration 1000.0 nM
[23] = target: High affinity nerve growth factor receptor (Homo sapiens) (UniProt P04629); conditions: Compound concentration 1000.0 nM
[24] = target: Testis-specific serine/threonine-protein kinase 1 (Homo sapiens) (UniProt Q9BXA7); conditions: Compound concentration 1000.0 nM
[25] = target: Rho-associated protein kinase 2 (Homo sapiens) (UniProt O75116); conditions: Compound concentration 1000.0 nM
[26] = target: Dual serine/threonine and tyrosine protein kinase (Homo sapiens) (UniProt Q6XUX3); conditions: Compound concentration 1000.0 nM
[27] = target: Casein kinase I isoform alpha (Homo sapiens) (UniProt P48729); conditions: Compound concentration 1000.0 nM
[28] = target: Serine/threonine-protein kinase Nek5 (Homo sapiens) (UniProt Q6P3R8); conditions: Compound concentration 1000.0 nM
[29] = target: Wee1-like protein kinase 2 (Homo sapiens) (UniProt P0C1S8); conditions: Compound concentration 1000.0 nM
[30] = tested on: Mast/stem cell growth factor receptor Kit (Homo sapiens), P10721 [D816V]; conditions: Compound concentration 1000.0 nM
[31] = target: Insulin receptor-related protein (Homo sapiens) (UniProt P14616); conditions: Compound concentration 1000.0 nM
[32] = target: Dual specificity mitogen-activated protein kinase kinase 6 (Homo sapiens) (UniProt P52564); conditions: Compound concentration 1000.0 nM
[33] = target: Serine/threonine-protein kinase Nek10 (Homo sapiens) (UniProt Q6ZWH5); conditions: Compound concentration 1000.0 nM
Chain of Serine/threonine-protein kinase Nek10 (Homo sapiens) (Q6ZWH5 whole entry): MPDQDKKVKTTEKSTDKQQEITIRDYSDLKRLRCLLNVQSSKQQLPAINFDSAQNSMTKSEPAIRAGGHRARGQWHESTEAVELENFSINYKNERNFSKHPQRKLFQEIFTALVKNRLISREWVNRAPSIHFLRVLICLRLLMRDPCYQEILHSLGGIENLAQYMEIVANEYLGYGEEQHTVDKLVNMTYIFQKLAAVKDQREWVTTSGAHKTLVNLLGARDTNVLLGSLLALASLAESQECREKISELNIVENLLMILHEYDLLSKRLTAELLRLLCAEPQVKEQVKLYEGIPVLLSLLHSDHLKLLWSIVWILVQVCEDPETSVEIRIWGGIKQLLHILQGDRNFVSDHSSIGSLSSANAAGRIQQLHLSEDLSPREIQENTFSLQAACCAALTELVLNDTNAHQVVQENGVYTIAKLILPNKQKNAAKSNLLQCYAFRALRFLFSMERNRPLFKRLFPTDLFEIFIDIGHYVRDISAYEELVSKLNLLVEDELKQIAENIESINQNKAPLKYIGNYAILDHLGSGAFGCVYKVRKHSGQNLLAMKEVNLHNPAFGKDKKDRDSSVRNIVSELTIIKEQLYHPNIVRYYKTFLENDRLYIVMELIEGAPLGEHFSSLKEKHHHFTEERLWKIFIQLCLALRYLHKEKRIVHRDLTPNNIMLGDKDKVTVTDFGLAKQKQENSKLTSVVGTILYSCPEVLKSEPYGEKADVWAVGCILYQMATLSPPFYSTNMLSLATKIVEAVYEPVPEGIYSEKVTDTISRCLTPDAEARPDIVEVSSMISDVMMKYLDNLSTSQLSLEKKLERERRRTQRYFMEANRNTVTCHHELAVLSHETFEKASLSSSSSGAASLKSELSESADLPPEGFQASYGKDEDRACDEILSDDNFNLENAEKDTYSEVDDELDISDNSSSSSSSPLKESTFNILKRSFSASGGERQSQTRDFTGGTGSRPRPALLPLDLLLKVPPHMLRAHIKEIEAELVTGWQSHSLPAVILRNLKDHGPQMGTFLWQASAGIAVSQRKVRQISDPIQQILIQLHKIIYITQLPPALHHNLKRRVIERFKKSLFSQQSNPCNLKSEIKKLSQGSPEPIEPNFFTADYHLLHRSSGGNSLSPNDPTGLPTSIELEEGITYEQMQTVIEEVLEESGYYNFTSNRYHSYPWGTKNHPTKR

[34] = target: Mitogen-activated protein kinase 4 (Homo sapiens) (UniProt P31152); conditions: Compound concentration 1000.0 nM
[35] = target: Phosphatidylinositol 3-kinase C2 domain-containing subunit gamma (Homo sapiens) (UniProt O75747); conditions: Compound concentration 1000.0 nM
[36] = target: Fibroblast growth factor receptor 2 (Homo sapiens) (UniProt P21802); conditions: Compound concentration 1000.0 nM
[37] = tested on: Mast/stem cell growth factor receptor Kit (Homo sapiens), P10721 [V559D]; conditions: Compound concentration 1000.0 nM
[38] = target: Serine/threonine-protein kinase 17B (Homo sapiens) (UniProt O94768); conditions: Compound concentration 1000.0 nM
[39] = target: Phosphatidylinositol 3-kinase catalytic subunit type 3 (Homo sapiens) (UniProt Q8NEB9); conditions: Compound concentration 1000.0 nM
[40] = tested on: Epidermal growth factor receptor (Homo sapiens), P00533 [G719C]; conditions: Compound concentration 1000.0 nM
[41] = target: Tyrosine-protein kinase HCK (Homo sapiens) (UniProt P08631); conditions: Compound concentration 1000.0 nM
[42] = target: Homeodomain-interacting protein kinase 3 (Homo sapiens) (UniProt Q9H422); conditions: Compound concentration 1000.0 nM
Chain of Homeodomain-interacting protein kinase 3 (Homo sapiens) (Q9H422 whole entry, looked up): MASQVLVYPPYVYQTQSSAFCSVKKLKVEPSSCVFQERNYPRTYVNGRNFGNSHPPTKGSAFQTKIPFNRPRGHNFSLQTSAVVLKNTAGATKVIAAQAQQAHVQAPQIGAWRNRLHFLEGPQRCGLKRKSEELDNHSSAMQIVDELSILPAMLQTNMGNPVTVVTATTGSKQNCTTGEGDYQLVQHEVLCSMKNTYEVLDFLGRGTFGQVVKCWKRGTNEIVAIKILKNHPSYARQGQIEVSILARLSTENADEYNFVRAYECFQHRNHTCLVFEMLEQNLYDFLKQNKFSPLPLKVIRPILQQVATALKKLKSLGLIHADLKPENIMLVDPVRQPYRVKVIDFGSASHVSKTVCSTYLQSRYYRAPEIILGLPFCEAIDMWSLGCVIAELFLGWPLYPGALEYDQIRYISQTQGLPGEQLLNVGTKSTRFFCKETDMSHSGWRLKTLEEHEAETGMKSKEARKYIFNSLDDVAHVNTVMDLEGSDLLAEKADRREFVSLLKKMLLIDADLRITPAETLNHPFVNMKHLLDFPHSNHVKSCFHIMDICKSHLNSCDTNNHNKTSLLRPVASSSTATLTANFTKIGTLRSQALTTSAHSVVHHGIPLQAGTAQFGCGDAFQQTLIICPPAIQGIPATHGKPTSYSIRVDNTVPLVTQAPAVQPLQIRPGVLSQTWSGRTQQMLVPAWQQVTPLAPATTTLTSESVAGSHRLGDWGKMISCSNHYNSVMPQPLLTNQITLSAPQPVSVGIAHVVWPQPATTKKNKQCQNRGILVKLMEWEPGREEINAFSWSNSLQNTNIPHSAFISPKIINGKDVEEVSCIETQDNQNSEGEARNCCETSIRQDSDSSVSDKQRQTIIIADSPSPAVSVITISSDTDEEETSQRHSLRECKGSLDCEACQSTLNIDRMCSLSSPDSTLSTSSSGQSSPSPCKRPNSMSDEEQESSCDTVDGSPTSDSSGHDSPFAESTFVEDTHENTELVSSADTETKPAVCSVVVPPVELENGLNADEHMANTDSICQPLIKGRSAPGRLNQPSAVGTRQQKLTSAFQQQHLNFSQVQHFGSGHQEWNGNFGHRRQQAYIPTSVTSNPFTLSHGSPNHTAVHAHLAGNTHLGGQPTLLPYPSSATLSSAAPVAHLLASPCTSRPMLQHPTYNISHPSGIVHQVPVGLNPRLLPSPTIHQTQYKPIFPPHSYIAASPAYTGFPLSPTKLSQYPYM

[43] = tested on: Tyrosine-protein kinase ABL1 (Homo sapiens), P00519 [F317I]; conditions: Compound concentration 1000.0 nM
[44] = target: Serine/threonine-protein kinase STK11 (Homo sapiens) (UniProt Q15831); conditions: Compound concentration 1000.0 nM
[45] = target: Inhibitor of nuclear factor kappa-B kinase subunit epsilon (Homo sapiens) (UniProt Q14164); conditions: Compound concentration 1000.0 nM

NS(=O)(=O)c1cc(NC(=O)C2(c3ccccc3Cl)CC2)ccc1Oc1cccc(Cl)c1 [BAY-207]
inactive: inhibition [1] 5.57% | residual activity [2] 82% | residual activity [3] 86% | residual activity [4] 91% | residual activity [5] 100% | residual activity [6] 72% | residual activity [7] 85% | residual activity [8] 84% | residual activity [9] 70% | residual activity [10] 83% | residual activity [11] 84% | residual activity [12] 89% | residual activity [13] 85% | residual activity [14] 74% | residual activity [15] 82% | residual activity [16] 99% | residual activity [17] 100% | residual activity [18] 100% | residual activity [19] 80% | residual activity [20] 100% | residual activity [21] 81% | residual activity [22] 98% | residual activity [23] 100% | residual activity [24] 100% | residual activity [25] 100% | residual activity [26] 93% | residual activity [27] 100% | residual activity [28] 89% | residual activity [29] 74% | residual activity [30] 93% | residual activity [31] 95% | residual activity [32] 96% | residual activity [33] 89% | residual activity [34] 87% | residual activity [35] 100% | residual activity [36] 100% | residual activity [37] 79% | residual activity [38] 97% | residual activity [39] 89% | residual activity [40] 90% | residual activity [41] 89% | residual activity [42] 100% | residual activity [43] 90% | residual activity [44] 100% | residual activity [45] 70%

NS(=O)(=O)c1cc(NC(=O)Cc2ccccc2)ccc1Oc1cccc(Cl)c1 [BAY-1797]
inactive: inhibition [1] 1.47% | residual activity [2] 100% | residual activity [3] 100% | residual activity [4] 80% | residual activity [5] 77% | residual activity [6] 83% | residual activity [7] 87% | residual activity [8] 74% | residual activity [9] 90% | residual activity [10] 74% | residual activity [11] 93% | residual activity [12] 87% | residual activity [13] 62% | residual activity [14] 100% | residual activity [15] 100% | residual activity [16] 97% | residual activity [17] 93% | residual activity [18] 76% | residual activity [19] 67% | residual activity [20] 88% | residual activity [21] 100% | residual activity [22] 91% | residual activity [23] 73% | residual activity [24] 100% | residual activity [25] 98% | residual activity [26] 83% | residual activity [27] 93% | residual activity [28] 77% | residual activity [29] 78% | residual activity [30] 77% | residual activity [31] 100% | residual activity [32] 99% | residual activity [33] 89% | residual activity [34] 91% | residual activity [35] 72% | residual activity [36] 61% | residual activity [37] 81% | residual activity [38] 100% | residual activity [39] 100% | residual activity [40] 63% | residual activity [41] 54% | residual activity [42] 84% | residual activity [43] 72% | residual activity [44] 51% | residual activity [45] 69%
